# In patent US8916567B2, “Certain crystalline hydrates, pharmaceutical compositions thereof and methods for preparation and use thereof” (Universal Technology Alliance, Inc., priority 2009, dated 2014):
# Assays:
# [1] = system: Staphylococcus aureus MSSA; assay: Minimum inhibitory concentration (MIC) in vitro, agar dilution method; assay type: cell-based; settings: hydrate
# How it was run: (§1)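 MIC50, MIC90, MIC range and individual MICs derive from CLSI/NCCLS agar dilution testing of 2007-2008 clinical isolates from Sichuan and Beijing. Samples were prepared in DMSO with further dilution in sterile water; vancomycin and linezolid served as reference drugs.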
# [2] = system: S. epidermidis MRSE; assay: as above; assay type: cell-based; settings: hydrate
# How it was run: as §1
# [3] = system: E. feacalis; assay: as above; assay type: cell-based; settings: hydrate
# How it was run: as §1
# [4] = system: S. epidermidis MSSE; assay: as above; assay type: cell-based; settings: hydrate
# How it was run: as §1
# [5] = system: Staphylococcus aureus MRSA; assay: as above; assay type: cell-based; settings: hydrate
# How it was run: as §1
# [6] = system: E. feacium; assay: as above; assay type: cell-based; settings: hydrate
# How it was run: as §1
# [7] = Solubility in different solvents according to Chinese Pharmacopeia (2005 edition); assay type: physicochemical; settings: for Result: at the given solute:solvent ratio
# Description: The solubility of the (S)—[N-3-(3′-fluoro-4′-(4″-phenylpiperazinyl))phenyl-2-oxo-5-oxazolelidinyl]methylacetamide hydrates was tested with different solvents, and the test results are shown in Tables 15-19. The solubility was measured according to Chinese Pharmacopeia (2005 edition).
# [8] = system: Staphylococcus aureus; assay: Minimum inhibitory concentration (MIC) in vitro, agar dilution method, quality control strain; assay type: cell-based; settings: strain S. AT C C25923 (Table 7 No. 1); hydrate
# How it was run: as §1
# [9] = S. MSSA (11 strains), clinically isolated
# [10] = S. ep MRSE (10 strains), clinically isolated
# [11] = E. feacalis (5 strains), clinically isolated
# [12] = S. ep MSSE (10 strains), clinically isolated
# [13] = S. MRSA (10 strains), clinically isolated
# [14] = E. feacium (5 strains), clinically isolated
smiles,measurement,setting,value
"CC(=O)NC[C@H]1CN(c2ccc(N3CCN(c4ccccc4)CC3)c(F)c2)C(=O)O1 [3/4 hydrate, (S)—[N-3-(3′-fluoro-4′-(4″-phenylpiperazinyl))phenyl-2-oxo-5-oxazolidinyl]methyl acetamide 3/4 hydrate]",MIC50,[1]; [9],1 µg/mL
same,MIC90,[1]; [9],1 µg/mL
same,MICrange,[1]; [9],0.5 to 1 µg/mL
same,MIC,[1]; strain S. MSSA 123 (Table 7 No. 3),1 µg/mL
same,MIC,[1]; strain S. MSSA 187 (Table 7 No. 7),1 µg/mL
same,MIC,[1]; strain S. MSSA 195 (Table 7 No. 6),1 µg/mL
same,MIC,[1]; strain S. MSSA 195 (Table 7 No. 12),1 µg/mL
same,MIC,[1]; strain S. MSSA 201 (Table 7 No. 11),0.5 µg/mL
same,MIC,[1]; strain S. MSSA 232 (Table 7 No. 2),1 µg/mL
same,MIC,[1]; strain S. MSSA 275 (Table 7 No. 10),0.5 µg/mL
same,MIC,[1]; strain S. MSSA 466 (Table 7 No. 8),0.5 µg/mL
same,MIC,[1]; strain S. MSSA 519 (Table 7 No. 9),1 µg/mL
same,MIC,[1]; strain S. MSSA 520 (Table 7 No. 4),1 µg/mL
same,MIC,[1]; strain S. MSSA 580 (Table 7 No. 5),1 µg/mL
same,MIC50,[2]; [10],1 µg/mL
same,MIC90,[2]; [10],1 µg/mL
same,MICrange,[2]; [10],1 µg/mL
same,MIC,[2]; strain S. ep MRSE4 (Table 8 No. 9),1 µg/mL
same,MIC,[2]; strain S. ep MRSE20 (Table 8 No. 6),1 µg/mL
same,MIC,[2]; strain S. ep MRSE87 (Table 8 No. 13),1 µg/mL
same,MIC,[2]; strain S. ep MRSE90 (Table 8 No. 10),1 µg/mL
same,MIC,[2]; strain S. ep MRSE101 (Table 8 No. 7),1 µg/mL
same,MIC,[2]; strain S. ep MRSE105 (Table 8 No. 11),1 µg/mL
same,MIC,[2]; strain S. ep MRSE140 (Table 8 No. 14),1 µg/mL
same,MIC,[2]; strain S. ep MRSE142 (Table 8 No. 12),1 µg/mL
same,MIC,[2]; strain S. ep MRSE210 (Table 8 No. 15),1 µg/mL
same,MIC,[2]; strain S. ep MRSE211 (Table 8 No. 8),1 µg/mL
same,MIC50,[3]; [11],2 µg/mL
same,MIC90,[3]; [11],4 µg/mL
same,MICrange,[3]; [11],1 to 4 µg/mL
same,MIC,[3]; strain Efa 54 (Table 8 No. 20),2 µg/mL
same,MIC,[3]; strain Efa 116 (Table 8 No. 16),2 µg/mL
same,MIC,[3]; strain Efa 907 (Table 8 No. 19),1 µg/mL
same,MIC,[3]; strain Efa 3006 (Table 8 No. 18),2 µg/mL
same,MIC,[3]; strain Efa 33748 (Table 8 No. 17),4 µg/mL
same,MIC50,[4]; [12],0.5 µg/mL
same,MIC90,[4]; [12],1 µg/mL
same,MICrange,[4]; [12],0.5 to 1 µg/mL
same,MIC,[4]; strain S. ep MSSE87 (Table 7 No. 23),0.5 µg/mL
same,MIC,[4]; strain S. ep MSSE88 (Table 8 No. 5),1 µg/mL
same,MIC,[4]; strain S. ep MSSE113 (Table 7 No. 24),0.5 µg/mL
same,MIC,[4]; strain S. ep MSSE116 (Table 7 No. 25),0.5 µg/mL
same,MIC,[4]; strain S. ep MSSE118 (Table 8 No. 2),0.5 µg/mL
same,MIC,[4]; strain S. ep MSSE119 (Table 7 No. 27),1 µg/mL
same,MIC,[4]; strain S. ep MSSE137 (Table 8 No. 4),1 µg/mL
same,MIC,[4]; strain S. ep MSSE140 (Table 8 No. 3),0.5 µg/mL
same,MIC,[4]; strain S. ep MSSE142 (Table 7 No. 26),1 µg/mL
same,MIC,[4]; strain S. ep MSSE153 (Table 8 No. 1),1 µg/mL
same,MIC50,[5]; [13],1 µg/mL
same,MIC90,[5]; [13],1 µg/mL
same,MICrange,[5]; [13],0.5 to 1 µg/mL
same,MIC,[5]; strain S. MRSA 29 (Table 7 No. 15),0.5 µg/mL
same,MIC,[5]; strain S. MRSA 101 (Table 7 No. 14),1 µg/mL
same,MIC,[5]; strain S. MRSA 201 (Table 7 No. 13),1 µg/mL
same,MIC,[5]; strain S. MRSA B27 (Table 7 No. 21),0.5 µg/mL
same,MIC,[5]; strain S. MRSA B105 (Table 7 No. 17),1 µg/mL
same,MIC,[5]; strain S. MRSA B143 (Table 7 No. 19),1 µg/mL
same,MIC,[5]; strain S. MRSA B151 (Table 7 No. 20),1 µg/mL
same,MIC,[5]; strain S. MRSA B164 (Table 7 No. 16),1 µg/mL
same,MIC,[5]; strain S. MRSA B199 (Table 7 No. 22),0.5 µg/mL
same,MIC,[5]; strain S. MRSA B617 (Table 7 No. 18),1 µg/mL
same,MIC50,[6]; [14],2 µg/mL
same,MIC90,[6]; [14],4 µg/mL
same,MICrange,[6]; [14],1 to 4 µg/mL
same,MIC,[6]; strain Efm 98 (Table 8 No. 21),2 µg/mL
same,MIC,[6]; strain Efm 171 (Table 8 No. 25),2 µg/mL
same,MIC,[6]; strain Efm 197 (Table 8 No. 22),1 µg/mL
same,MIC,[6]; strain Efm N3 (Table 8 No. 23),4 µg/mL
same,MIC,[6]; strain Efm N4 (Table 8 No. 24),4 µg/mL
same,Solubility compared with the anhydride,[7]; different solvents,sometimes more soluble than the anhydride
same,Result,[7]; solvent 0.1N Hydrochloric acid,Dissolved
same,Result,[7]; solvent 0.1N Sodium hydroxide,Insoluble
same,Result,[7]; solvent Acetonitrile,Dissolved
same,Result,[7]; solvent Ethanol,Dissolved
same,Result,[7]; solvent Methanol,Dissolved
same,Result,"[7]; solvent Water, listed as ¾ hydrate, hydrate",Dissolved
same,MIC,[8],1 µg/mL
